The target of this experiment is human mGluR4 (Homo sapiens (Human), UniProt Q14833). The experiment can be described thus: mGluR4 potentiation assay, CHO cells transfected with human mGluR4, Ca2+-sensitive fluorescent dye, EC20 agonist. It is filed as cell-based. Conditions: potentiation of mGluR4; table does not state human or rat receptor. The procedure: The disclosed compounds and compositions can be evaluated for their ability to act as a potentiator of metabotropic glutamate receptor activity, in particular mGluR4 activity, by any suitable known methodology known in the art. For example, Chinese Hamster Ovary (CHO) cells transfected with human mGluR4 or HEK cells co-transfected with rat mGluR4 and the G-protein regulated Inwardly Rectifying Potassium channel (GIRK) were plated in clear bottom assay plates for assay in a Hamamatsu FDSS Fluorometric Plate Reader. The cells were loaded with either a Ca2+-sensitive fluorescent dye or the thallium responsive dye and the plates were washed and placed into a suitable kinetic plate reader. For human mGluR4 assays, a fluorescence baseline was established for 3-5 seconds, the disclosed compounds were then added to the cells, and the response in cells was measured. Approximately two and a half minutes later, a concentration of mGluR4 orthosteric agonist (e.g. glutamate or L-AP4) eliciting approximately 20% (EC20) of the maximal agonist response was added to the cells, and the response was measured. Two minutes later, a concentration of mGluR4 agonist (e.g. glutamate or L-AP4) eliciting 80% (EC80) of the maximal agonist response was added to the cells, and the response was measured. For rat mGluR4/GIRK experiments, a baseline was established for approximately five seconds, disclosed compounds were added, and either an EC20 or EC80 concentration of agonist was added approximately two and one half minutes later.
Sequence of human mGluR4 (Q14833 33-912): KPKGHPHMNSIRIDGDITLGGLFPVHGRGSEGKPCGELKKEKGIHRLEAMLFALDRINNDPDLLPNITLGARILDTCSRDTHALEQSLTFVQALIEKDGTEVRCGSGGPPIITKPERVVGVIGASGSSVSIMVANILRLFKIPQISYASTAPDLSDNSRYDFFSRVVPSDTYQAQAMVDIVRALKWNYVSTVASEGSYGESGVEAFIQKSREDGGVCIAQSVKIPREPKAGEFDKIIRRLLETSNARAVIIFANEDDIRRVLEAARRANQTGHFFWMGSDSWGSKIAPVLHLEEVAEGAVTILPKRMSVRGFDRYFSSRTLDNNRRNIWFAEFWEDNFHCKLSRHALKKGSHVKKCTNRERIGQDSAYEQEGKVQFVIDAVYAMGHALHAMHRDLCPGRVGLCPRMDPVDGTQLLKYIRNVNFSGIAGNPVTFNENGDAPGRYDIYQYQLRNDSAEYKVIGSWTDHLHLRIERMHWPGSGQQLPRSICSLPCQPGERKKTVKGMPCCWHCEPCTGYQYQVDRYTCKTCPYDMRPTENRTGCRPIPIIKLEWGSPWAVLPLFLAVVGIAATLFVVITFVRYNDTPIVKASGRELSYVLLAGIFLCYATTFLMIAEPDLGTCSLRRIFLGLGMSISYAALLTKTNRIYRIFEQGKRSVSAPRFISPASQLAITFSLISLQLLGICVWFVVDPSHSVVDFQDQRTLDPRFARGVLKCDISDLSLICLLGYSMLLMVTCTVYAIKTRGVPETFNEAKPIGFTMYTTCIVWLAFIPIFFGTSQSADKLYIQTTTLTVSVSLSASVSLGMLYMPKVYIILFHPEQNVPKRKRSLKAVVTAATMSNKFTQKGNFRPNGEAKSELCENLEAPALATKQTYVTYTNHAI
The above described assay operated in two modes. In the first mode, a range of concentrations of the disclosed compounds are added to cells, followed by a single fixed concentration of agonist. If the compound acts as a potentiatior, an EC50 value for potentiation and a maximum extent of potentiation by the compound at this concentration of agonist is determined by non-linear curve fitting. If the compound acts as a noncompetitive antagonist, an IC50 value is determined by non-linear curve fitting. In the second mode, several fixed concentrations of the disclosed compounds are added to various wells on a plate, followed by a range in concentrations of agonist for each concentration of disclosed compound. The EC50 values for the agonist at each concentration of compound are determined by non-linear curve fitting. A decrease in the EC50 value of the agonist with increasing concentrations of the sample compound (a leftward shift of the agonist concentration-response curve) is an indication of the degree of mGluR4 potentiation at a given concentration of the sample compound. A decrease in the maximal response of the agonist with increasing concentrations of the sample compounds, with or without a rightward shift in agonist potency, is an indication of the degree of noncompetitive antagonism at mGluR4. The second mode also indicates whether the sample compounds also affect the maximum response to mGluR4 to agonists.
Take `Cn1nc2cccnc2c1Nc1ccc(F)c(Cl)c1` [Example 59, N-(3-chloro-4-fluorophenyl)-2-methyl-2H-pyrazolo[4,3-b]pyridin-3-amine]: the EC50 (in general, the concentration needed to bring the measured effect to its halfway point) was found to be 11900 nM.

Regarding `Clc1cc(Nc2n[nH]c3cccnc23)cnc1Cl` [Example 47, N-(5,6-dichloropyridin-3-yl)-1H-pyrazolo[4,3-b]pyridin-3-amine], the EC50 came out at 1020 nM.

Turning to `Cc1ccc(Cl)cc1Nc1n[nH]c2cccnc12` [Example 78, N-(5-chloro-2-methylphenyl)-1H-pyrazolo[4,3-b]pyridin-3-amine], the EC50 is 410 nM.

In the case of `Fc1ccc2[nH]nc(Nc3ccc(F)c(Cl)c3)c2n1` [Example 95, N-(3-chloro-4-fluorophenyl)-5-fluoro-1H-pyrazolo[4,3-b]pyridin-3-amine], the EC50 turned out to be 312 nM.

Regarding `Fc1ccc(Nc2n[nH]c3cccnc23)cc1F` [Example 5, N-(3,4-difluorophenyl)-1H-pyrazolo[4,3-b]pyridin-3-amine], the EC50 was found to be 644 nM.

For `Fc1cc(Nc2n[nH]c3cccnc23)cc(F)c1F` [Example 80, N-(3,4,5-trifluorophenyl)-1H-pyrazolo[4,3-b]pyridin-3-amine], the concentration giving a half-maximal response (EC50) came to 146 nM.

`Fc1ccc(Nc2n[nH]c3cccnc23)cc1` [Example 65, N-(4-fluorophenyl)-1H-pyrazolo[4,3-b]pyridin-3-amine]: the EC50 came to 1420 nM.

For `Fc1cc(Nc2n[nH]c3cccnc23)ccc1Oc1ncccn1` [Example 74, N-(3-fluoro-4-(pyrimidin-2-yloxy)phenyl)-1H-pyrazolo[4,3-b]pyridin-3-amine], the EC50 stood at 2760 nM.

Consider `CN1C(=O)N(c2ccc(Nc3n[nH]c4cccnc34)cc2Cl)C(=O)C1C(C)(C)C` (centres unmarked) [Example 35, 3-(4-((1H-pyrazolo[4,3-b]pyridin-3-yl)amino)-2-chlorophenyl)-5-(tert-butyl)-1-methylimidazolidine-2,4-dione], for which the EC50 came out at 753 nM.

`Clc1ccc(Nc2n[nH]c3cccnc23)cn1` [Example 15, N-(6-chloropyridin-3-yl)-1H-pyrazolo[4,3-b]pyridin-3-amine]: the EC50 worked out at 5500 nM.

As to `O=C(c1cccc(C(F)(F)F)c1)c1ccc(Nc2n[nH]c3cccnc23)cc1Cl` [Example 38, (4-((1H-pyrazolo[4,3-b]pyridin-3-yl)amino)-2-chlorophenyl)(3-(trifluoromethyl)phenyl)methanone], the EC50 was 3880 nM.

`Clc1cncc(Nc2n[nH]c3cccnc23)c1` [Example 14, N-(5-chloropyridin-3-yl)-1H-pyrazolo[4,3-b]pyridin-3-amine]: the EC50 was 353 nM.

For the compound `Fc1ccc(CNc2n[nH]c3cccnc23)cc1Cl` [Example 51, N-(3-chloro-4-fluorobenzyl)-1H-pyrazolo[4,3-b]pyridin-3-amine], the EC50 was determined as 7080 nM.

For `Fc1cc(Nc2n[nH]c3cccnc23)ccc1Oc1ccc(Cl)cn1` [Example 76, N-(4-((5-chloropyridin-2-yl)oxy)-3-fluorophenyl)-1H-pyrazolo[4,3-b]pyridin-3-amine], the EC50 was 151 nM.

With `Clc1cc(Nc2n[nH]c3cccnc23)cc(Cl)c1Cl` [Example 42, N-(3,4,5-trichlorophenyl)-1H-pyrazolo[4,3-b]pyridin-3-amine], the EC50 came to 721 nM.

Turning to `Cc1cc(Nc2n[nH]c3cccnc23)ccc1F` [Example 82, N-(4-fluoro-3-methylphenyl)-1H-pyrazolo[4,3-b]pyridin-3-amine], the EC50 turned out to be 68 nM.

As to `CNc1ncc(Nc2n[nH]c3cccnc23)cc1Cl` [Example 48, 3-chloro-N2-methyl-N5-(1H-pyrazolo[4,3-b]pyridin-3-yl)pyridine-2,5-diamine], the EC50 amounted to 6440 nM.

`Fc1c(Cl)cc(Nc2n[nH]c3cccnc23)cc1Cl` [Example 43, N-(3,5-dichloro-4-fluorophenyl)-1H-pyrazolo[4,3-b]pyridin-3-amine]: the EC50 was 410 nM.

Turning to `Cc1cc(Nc2n[nH]c3cccnc23)ccc1Cl` [Example 7, N-(4-chloro-3-methylphenyl)-1H-pyrazolo[4,3-b]pyridin-3-amine], the EC50 worked out at 164 nM.

For `Cn1ccc2ccc(Nc3n[nH]c4cccnc34)cc21` [Example 53, N-(1-methyl-1H-indol-6-yl)-1H-pyrazolo[4,3-b]pyridin-3-amine], the EC50 is 3590 nM.

Take `Clc1cccc(Oc2ccc(Nc3n[nH]c4cccnc34)cc2Cl)n1` [Example 77, N-(3-chloro-4-((6-chloropyridin-2-yl)oxy)phenyl)-1H-pyrazolo[4,3-b]pyridin-3-amine]: the EC50 was 88 nM.

As for `c1cnc2c(Nc3nccs3)n[nH]c2c1` [Example 45, N-(1H-pyrazolo[4,3-b]pyridin-3-yl)thiazol-2-amine], the EC50 was determined as 10000 nM.

As for `CN(c1cccc(Cl)c1)c1n[nH]c2cccnc12` [Example 86, N-(3-chlorophenyl)-N-methyl-1H-pyrazolo[4,3-b]pyridin-3-amine], the EC50 worked out at 8010 nM.

Take `Fc1ccc(Nc2n[nH]c3cccnc23)cc1C(F)(F)F` [Example 71, N-(4-fluoro-3-(trifluoromethyl)phenyl)-1H-pyrazolo[4,3-b]pyridin-3-amine]: the EC50 is 385 nM.

As for `Fc1cc(F)c(Nc2n[nH]c3cccnc23)cc1Cl` [Example 79, N-(5-chloro-2,4-difluorophenyl)-1H-pyrazolo[4,3-b]pyridin-3-amine], the EC50 stood at 342 nM.

Turning to `Fc1cc(Nc2n[nH]c3cccnc23)cc(C(F)(F)F)c1` [Example 62, N-(3-fluoro-5-(trifluoromethyl)phenyl)-1H-pyrazolo[4,3-b]pyridin-3-amine], the EC50 was found to be 217 nM.

As for `CS(=O)(=O)c1ccc(Nc2n[nH]c3cccnc23)cc1F` [Example 58, N-(3-fluoro-4-(methylsulfonyl)phenyl)-1H-pyrazolo[4,3-b]pyridin-3-amine], the EC50 turned out to be 11500 nM.

For the compound `COc1cc(Nc2n[nH]c3cccnc23)ccc1Cl` [Example 6, N-(4-chloro-3-methoxyphenyl)-1H-pyrazolo[4,3-b]pyridin-3-amine], the EC50 stood at 1110 nM.

`Cc1ccc(F)c(Nc2n[nH]c3cccnc23)c1` [Example 84, N-(2-fluoro-5-methylphenyl)-1H-pyrazolo[4,3-b]pyridin-3-amine]: the EC50 was determined as 314 nM.

Values taken from patent US9163015B2, “Pyrazolopyridine, pyrarolopyrazine, pyrazolopyrimidine, pyrazolothiophene and pyrazolothiazole compounds as MGLUR4 allosteric potentiators, compositions, and methods of treating neurological dysfunction” (Vanderbilt University, priority 2010, dated 2015).
